Experimental data reported in ChEMBL document CHEMBL1201861, “Genomics of Drug Sensitity in Cancer screening data, Wellcome Trust Sanger Institute”.

How the values were obtained:
Experiment in all cases: cells
Conditions in all cases: Homo sapiens
MSTO-211H = assay type: functional, cell-based
Description: SANGER: Inhibition of human MSTO-211H cell growth in a cell viability assay.

EW-24 = assay type: functional, cell-based;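 also: human EW-24 cancer cell line, growth inhibition read out via a cell viability assay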
Description: SANGER: Inhibition of human EW-24 cell growth in a cell viability assay.

NB6 = assay type: functional, cell-based;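 also: growth inhibition of NB6 cells, read out by a cell viability assay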
Description: SANGER: Inhibition of human NB6 cell growth in a cell viability assay.

HuTu80 = assay type: functional, cell-based, HUTU-80;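 also: growth inhibition of HuTu80 human cells, determined with a cell viability readout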
Description: SANGER: Inhibition of human HUTU-80 cell growth in a cell viability assay.

MV4-11 = assay type: functional, cell-based, MV-4-11;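 also: cell viability readout measuring growth inhibition of human MV-4-11 cells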
Description: SANGER: Inhibition of human MV-4-11 cell growth in a cell viability assay.

AM-38 = assay type: functional, cell-based;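 also: growth inhibition of AM-38 cells of human origin, read out by a cell viability assay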
Description: SANGER: Inhibition of human AM-38 cell growth in a cell viability assay.

SNB-75 = assay type: functional, cell-based;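 also: cell viability assay measuring growth inhibition of human SNB-75 cells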
Description: SANGER: Inhibition of human SNB75 cell growth in a cell viability assay.

MMAC-SF = assay type: functional, cell-based;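 also: growth inhibition of human MMAC-SF cells, read out with a cell viability assay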
Description: SANGER: Inhibition of human MMAC-SF cell growth in a cell viability assay.

RH-1 = assay type: functional, cell-based;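 also: growth inhibition of human RH-1 cells, read out with a cell viability assay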
Description: SANGER: Inhibition of human RH-1 cell growth in a cell viability assay.

KM-H2 = assay type: functional, cell-based;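 also: growth inhibition of KM-H2 cells, read out by a cell viability assay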
Description: SANGER: Inhibition of human KM-H2 cell growth in a cell viability assay.

NKM-1 = assay type: functional, cell-based;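 also: growth inhibition of NKM-1 cells, read out with a cell viability assay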
Description: SANGER: Inhibition of human NKM-1 cell growth in a cell viability assay.

NCI-H720 = assay type: functional, cell-based;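 also: growth inhibition of human NCI-H720 cells determined by a cell viability assay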
Description: SANGER: Inhibition of human NCI-H720 cell growth in a cell viability assay.

HC-1 = assay type: functional, cell-based;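 also: growth inhibition of HC-1 cells measured by a cell viability assay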
Description: SANGER: Inhibition of human HC-1 cell growth in a cell viability assay.

GI-ME-N = assay type: functional, cell-based;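 also: growth inhibition of human GI-ME-N cells, read out with a cell viability assay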
Description: SANGER: Inhibition of human GI-ME-N cell growth in a cell viability assay.

Mo = assay type: functional, cell-based
Description: SANGER: Inhibition of human Mo-T cell growth in a cell viability assay.

DB = assay type: functional, cell-based
Description: SANGER: Inhibition of human DB cell growth in a cell viability assay.

KURAMOCHI = assay type: functional, cell-based;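 also: growth inhibition of KURAMOCHI cells, read out with a cell viability assay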
Description: SANGER: Inhibition of human KURAMOCHI cell growth in a cell viability assay.

DU-4475 = assay type: functional, cell-based
Description: SANGER: Inhibition of human DU-4475 cell growth in a cell viability assay.

COLO-684 = assay type: functional, cell-based
Description: SANGER: Inhibition of human COLO-684 cell growth in a cell viability assay.

MEG-01 = assay type: functional, cell-based;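 also: growth inhibition of MEG-01 cells, read out by a cell viability assay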
Description: SANGER: Inhibition of human MEG-01 cell growth in a cell viability assay.

ES6 = assay type: functional, cell-based;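 also: growth inhibition of human ES6 cells, read out with a cell viability assay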
Description: SANGER: Inhibition of human ES6 cell growth in a cell viability assay.

Becker = assay type: functional, cell-based;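 also: growth inhibition of Becker cells, read out with a cell viability assay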
Description: SANGER: Inhibition of human Becker cell growth in a cell viability assay.

C2BBe1 = assay type: functional, cell-based;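 also: growth inhibition of C2BBe1 cells, read out through a viability assay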
Description: SANGER: Inhibition of human C2BBe1 cell growth in a cell viability assay.

SF-268 = assay type: functional, cell-based;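 also: growth inhibition of SF-268 cells determined with a cell viability assay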
Description: SANGER: Inhibition of human SF268 cell growth in a cell viability assay.

CTV-1 = assay type: functional, cell-based;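 also: growth inhibition of the cell line, read out with a cell viability assay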
Description: SANGER: Inhibition of human CTV-1 cell growth in a cell viability assay.

BT-474 = assay type: functional, cell-based
Description: SANGER: Inhibition of human BT-474 cell growth in a cell viability assay.

KNS-81-FD = assay type: functional, cell-based;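 also: growth inhibition of KNS-81-FD cells, read out with a cell viability assay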
Description: SANGER: Inhibition of human KNS-81-FD cell growth in a cell viability assay.

BE-13 = assay type: functional, cell-based;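 also: growth inhibition of human BE-13 cells, measured with a cell viability assay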
Description: SANGER: Inhibition of human BE-13 cell growth in a cell viability assay.

TE-12 = assay type: functional, cell-based;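 also: growth inhibition of TE-12 cells, read out by a cell viability assay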
Description: SANGER: Inhibition of human TE-12 cell growth in a cell viability assay.

HCC1599 = assay type: functional, cell-based;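 also: growth inhibition of HCC1599 cells, read out in a cell viability assay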
Description: SANGER: Inhibition of human HCC1599 cell growth in a cell viability assay.

CP66-MEL = assay type: functional, cell-based;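 also: growth inhibition of CP66-MEL cells determined in a cell viability assay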
Description: SANGER: Inhibition of human CP66-MEL cell growth in a cell viability assay.

NCI-H1395 = assay type: functional, cell-based;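 also: cell viability assay read-out quantifying reduced proliferation of human NCI-H1395 cells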
Description: SANGER: Inhibition of human NCI-H1395 cell growth in a cell viability assay.

RS4-11 = assay type: functional, cell-based;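 also: growth inhibition of RS4-11 cells, read out by a cell viability assay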
Description: SANGER: Inhibition of human RS4-11 cell growth in a cell viability assay.

SCC-15 = assay type: functional, cell-based;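 also: growth inhibition of SCC-15 cells, read out with a cell viability assay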
Description: SANGER: Inhibition of human SCC-15 cell growth in a cell viability assay.

L-540 = assay type: functional, cell-based;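 also: growth inhibition of the human L-540 cell line, read out with a viability assay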
Description: SANGER: Inhibition of human L-540 cell growth in a cell viability assay.

SK-N-FI = assay type: functional, cell-based;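 also: cell viability assay measuring growth inhibition of human SK-N-FI cells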
Description: SANGER: Inhibition of human SK-N-FI cell growth in a cell viability assay.

HCC 2998 = assay type: functional, cell-based;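 also: growth inhibition of human HCC2998 cells, measured with a cell viability read-out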
Description: SANGER: Inhibition of human HCC2998 cell growth in a cell viability assay.

VA-ES-BJ = assay type: functional, cell-based;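 also: growth inhibition of the VA-ES-BJ cell line, read out by a cell viability assay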
Description: SANGER: Inhibition of human VA-ES-BJ cell growth in a cell viability assay.

IST-MEL1 = assay type: functional, cell-based;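 also: growth inhibition of the cell line, read out with a cell viability assay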
Description: SANGER: Inhibition of human IST-MEL1 cell growth in a cell viability assay.

KE-37 = assay type: functional, cell-based;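 also: growth inhibition of KE-37 cells, read out with a cell viability assay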
Description: SANGER: Inhibition of human KE-37 cell growth in a cell viability assay.

RPMI-8866 = assay type: functional, cell-based
Description: SANGER: Inhibition of human RPMI-8866 cell growth in a cell viability assay.

Lu-65 = assay type: functional, cell-based;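 also: growth inhibition of Lu-65 cancer cells, read out by a cell viability assay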
Description: SANGER: Inhibition of human LU-65 cell growth in a cell viability assay.

NCI-H1650 = assay type: functional, cell-based;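 also: growth inhibition of human NCI-H1650 cells measured by a cell viability assay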
Description: SANGER: Inhibition of human NCI-H1650 cell growth in a cell viability assay.

NCI-H526 = assay type: functional, cell-based;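 also: growth inhibition of the human NCI-H526 cell line, measured by a cell viability assay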
Description: SANGER: Inhibition of human NCI-H526 cell growth in a cell viability assay.

D-263MG = assay type: functional, cell-based
Description: SANGER: Inhibition of human D-263MG cell growth in a cell viability assay.

SW 962 = assay type: functional, cell-based;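 also: growth inhibition of human SW962 cells, read out by a cell viability assay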
Description: SANGER: Inhibition of human SW962 cell growth in a cell viability assay.

MZ7-mel = assay type: functional, cell-based;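 also: growth inhibition of human MZ7-mel cells, measured by a cell viability assay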
Description: SANGER: Inhibition of human MZ7-mel cell growth in a cell viability assay.

NB5 = assay type: functional, cell-based;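 also: growth inhibition of NB5 cells, read out as cell viability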
Description: SANGER: Inhibition of human NB5 cell growth in a cell viability assay.

ATN-1 = assay type: functional, cell-based;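 also: growth inhibition of human ATN-1 cells, read out with a cell viability assay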
Description: SANGER: Inhibition of human ATN-1 cell growth in a cell viability assay.

IST-MES1 = assay type: functional, cell-based;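 also: growth inhibition of IST-MES1 cells, measured with a cell viability assay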
Description: SANGER: Inhibition of human IST-MES1 cell growth in a cell viability assay.

SF-126 = assay type: functional, cell-based;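 also: growth inhibition of human SF126 cells, read out with a cell viability assay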
Description: SANGER: Inhibition of human SF126 cell growth in a cell viability assay.

LXF-289 cell line = assay type: functional, cell-based
Description: SANGER: Inhibition of human LXF-289 cell growth in a cell viability assay.

LB373-MEL-D = assay type: functional, cell-based;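 also: growth inhibition of the cell line, read out in a cell viability assay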
Description: SANGER: Inhibition of human LB373-MEL-D cell growth in a cell viability assay.

MS-1 = assay type: functional, cell-based;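 also: growth inhibition of MS-1 cells, read out by cell viability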
Description: SANGER: Inhibition of human MS-1 cell growth in a cell viability assay.

GCIY = assay type: functional, cell-based;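 also: growth inhibition of the human GCIY cell line, read out by a cell viability assay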
Description: SANGER: Inhibition of human GCIY cell growth in a cell viability assay.

NEC8 = assay type: functional, cell-based;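 also: growth inhibition of human NEC8 cells, read out by a cell viability assay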
Description: SANGER: Inhibition of human NEC8 cell growth in a cell viability assay.

TGBC24TKB = assay type: functional, cell-based;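 also: growth inhibition of human TGBC24TKB cells, read out with a cell viability assay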
Description: SANGER: Inhibition of human TGBC24TKB cell growth in a cell viability assay.

In the case of `Cc1ccc(NC(=O)c2cccc(C(C)(C)C#N)c2)cc1Nc1ccc2ncn(C)c(=O)c2c1`, the IC50 (MSTO-211H) is reported as 3950 nM, the IC50 (EW-24) is reported as 2710 nM and the IC50 (NB6) is reported as greater than 4000 nM. For the same compound, the IC50 (HuTu80) was 983 nM, the IC50 (MV4-11) was 1420 nM and the IC50 (AM-38) was greater than 4000 nM. For the same compound, the IC50 (SNB-75) was greater than 4000 nM, the IC50 (MMAC-SF) was 40.1 nM and the IC50 (RH-1) was greater than 4000 nM. For the same compound, the IC50 (KM-H2) was greater than 4000 nM, the IC50 (NKM-1) was 735 nM and the IC50 (NCI-H720) was greater than 4000 nM. For the same compound, the IC50 (HC-1) was greater than 4000 nM, the IC50 (GI-ME-N) was 1290 nM and the IC50 (Mo) was greater than 4000 nM. For the same compound, the IC50 (DB) was greater than 4000 nM, the IC50 (KURAMOCHI) was greater than 4000 nM and the IC50 (DU-4475) was 10.2 nM. It also gave an IC50 (COLO-684) greater than 4000 nM, an IC50 (MEG-01) of 376 nM and an IC50 (ES6) greater than 4000 nM. It also gave an IC50 (Becker) greater than 4000 nM, an IC50 (C2BBe1) greater than 4000 nM and an IC50 (SF-268) greater than 4000 nM. The IC50 (CTV-1) was 1200 nM, the IC50 (BT-474) was greater than 4000 nM and the IC50 (KNS-81-FD) was greater than 4000 nM. For the same compound, the IC50 (BE-13) was 806 nM, the IC50 (TE-12) was 1310 nM and the IC50 (HCC1599) was greater than 4000 nM. For the same compound, the IC50 (CP66-MEL) was 132 nM, the IC50 (NCI-H1395) was greater than 4000 nM and the IC50 (RS4-11) was greater than 4000 nM. It also gave an IC50 (SCC-15) greater than 4000 nM, an IC50 (L-540) of 3960 nM and an IC50 (SK-N-FI) greater than 4000 nM. For the same compound, the IC50 (HCC 2998) was 222 nM, the IC50 (VA-ES-BJ) was greater than 4000 nM and the IC50 (IST-MEL1) was 204 nM. For the same compound, the IC50 (KE-37) was greater than 4000 nM, the IC50 (RPMI-8866) was greater than 4000 nM and the IC50 (Lu-65) was greater than 4000 nM. It also gave an IC50 (NCI-H1650) greater than 4000 nM, an IC50 (NCI-H526) greater than 4000 nM and an IC50 (D-263MG) greater than 4000 nM. For the same compound, the IC50 (SW 962) was greater than 4000 nM, the IC50 (MZ7-mel) was 117 nM and the IC50 (NB5) was 1950 nM. It also gave an IC50 (ATN-1) greater than 4000 nM, an IC50 (IST-MES1) greater than 4000 nM and an IC50 (SF-126) greater than 4000 nM. The IC50 (LXF-289 cell line) was greater than 4000 nM, the IC50 (LB373-MEL-D) was 1660 nM and the IC50 (MS-1) was greater than 4000 nM. The IC50 (GCIY) was greater than 4000 nM and the IC50 (NEC8) was greater than 4000 nM.

For `Cc1nc(Nc2ncc(C(=O)Nc3c(C)cccc3Cl)s2)cc(N2CCN(CCO)CC2)n1` [DASATINIB], the IC50 (MSTO-211H) was greater than 1280 nM, the IC50 (EW-24) was 782 nM and the IC50 (NB6) was greater than 1280 nM. For the same compound, the IC50 (HuTu80) was 314 nM, the IC50 (MV4-11) was greater than 1280 nM and the IC50 (AM-38) was greater than 1280 nM. For the same compound, the IC50 (SNB-75) was 44.4 nM, the IC50 (MMAC-SF) was greater than 1280 nM and the IC50 (RH-1) was greater than 1280 nM. The IC50 (KM-H2) was greater than 1280 nM, the IC50 (NKM-1) was greater than 1280 nM and the IC50 (NCI-H720) was greater than 1280 nM. It also gave an IC50 (HC-1) greater than 1280 nM, an IC50 (GI-ME-N) of 61.2 nM and an IC50 (Mo) greater than 1280 nM. The IC50 (DB) was greater than 1280 nM, the IC50 (KURAMOCHI) was 34.9 nM and the IC50 (DU-4475) was greater than 1280 nM. For the same compound, the IC50 (COLO-684) was greater than 1280 nM, the IC50 (MEG-01) was less than 5 nM and the IC50 (ES6) was 31.9 nM. For the same compound, the IC50 (Becker) was 30 nM, the IC50 (C2BBe1) was 83.1 nM and the IC50 (SF-268) was 174 nM. For the same compound, the IC50 (CTV-1) was less than 5 nM, the IC50 (BT-474) was greater than 1280 nM and the IC50 (KNS-81-FD) was greater than 1280 nM. For the same compound, the IC50 (BE-13) was greater than 1280 nM, the IC50 (TE-12) was 18.6 nM and the IC50 (HCC1599) was greater than 1280 nM. It also gave an IC50 (CP66-MEL) of 195 nM, an IC50 (NCI-H1395) greater than 1280 nM and an IC50 (RS4-11) greater than 1280 nM. It also gave an IC50 (SCC-15) greater than 1280 nM, an IC50 (L-540) greater than 1280 nM and an IC50 (SK-N-FI) greater than 1280 nM. It also gave an IC50 (VA-ES-BJ) of 39 nM, an IC50 (IST-MEL1) of 135 nM and an IC50 (KE-37) greater than 1280 nM. The IC50 (RPMI-8866) was greater than 1280 nM, the IC50 (Lu-65) was greater than 1280 nM and the IC50 (NCI-H1650) was greater than 1280 nM. It also gave an IC50 (NCI-H526) greater than 1280 nM, an IC50 (D-263MG) of 362 nM and an IC50 (SW 962) of 113 nM. It also gave an IC50 (MZ7-mel) of 479 nM, an IC50 (NB5) greater than 1280 nM and an IC50 (ATN-1) greater than 1280 nM. For the same compound, the IC50 (IST-MES1) was 85.5 nM, the IC50 (SF-126) was 354 nM and the IC50 (LXF-289 cell line) was 39.6 nM. For the same compound, the IC50 (TGBC24TKB) was 47.6 nM, the IC50 (LB373-MEL-D) was 825 nM and the IC50 (MS-1) was greater than 1280 nM. The IC50 (GCIY) was 96.6 nM and the IC50 (NEC8) was greater than 1280 nM.
